# Key:
# Assay type in all cases: cell-based
# [1] = molecular target: T1, hNaV1.6 (Homo sapiens, UniProt Q9UQD0); experiment: Automated patch-clamp, rested state 'Peak' current (Vh -120 mV)
# T1 construct: expression vector containing the full-length cDNA coding for specific human and mouse sodium channel α-subunit; expressed in transfected cells
# Excerpt: Holding the membrane potential at –120 mV induces most channels to reside in the resting state. […] Holding the membrane potential at –45 mV encourages channels to transition into inactivated states. Brief hyperpolarizations allow rapid recovery from inactivation for channels that are not bound to drug followed by a short 20ms test pulse to –20 mV to measure currents from unbound channels (see Materials and methods for details).
# (§1) Inorm(CPD)=(ICPD−Icontrol)/(ITTX−Icontrol).
# [2] = molecular target: T2, hNaV1.6 I1327V (Homo sapiens, UniProt Q9UQD0, I1327V); experiment: Automated patch-clamp, patient-identified variant in Expi293F cells
# T2 construct: expression vector containing the full-length cDNA coding for specific human and mouse sodium channel α-subunit; expressed in transfected cells; host or cells: Expi293F (transient, tetracycline-induced, pcDNA4/TO)
# Procedure: (§2) For studies of mutant channels, cDNA plasmids in pcDNA4/TO Mammalian Expression Vector were transiently transfected into Expi293F cells stably expressing human FHF2b and human SCN1B subunit (polyclonal) background using ExpiFectamine 293 Transfection Kits (Gibco,Thermo Fisher Scientific CAT #: A14524). Induction was achieved using Tetracycline (Sigma Aldrich). Transfected cells were used in automated patch-clamp experiments 24 hours postinduction.
# as §1
# [3] = molecular target: T3, hNaV1.6 N1768D (Homo sapiens, UniProt Q9UQD0, N1768D); experiment: as above
# T3 construct: expression vector containing the full-length cDNA coding for specific human and mouse sodium channel α-subunit; expressed in transfected cells; host or cells: Expi293F (transient, tetracycline-induced, pcDNA4/TO)
# Procedure: as §2, §1
# [4] = molecular target: T4, mNaV1.1 (Mus musculus, UniProt A2APX8); experiment: Qube 384 automated patch-clamp, inactivated-state inhibition
# T4 construct: expression vector containing the full-length cDNA coding for specific human and mouse sodium channel α-subunit; expressed in transfected cells
# Excerpt: (§3) All of the cell lines tested negative for mycoplasma.
# as §1
# [5] = molecular target: T5, hNaV1.3 (Homo sapiens, UniProt Q9NY46); experiment: as above
# T5 construct: expression vector containing the full-length cDNA coding for specific human and mouse sodium channel α-subunit; expressed in transfected cells
# Excerpt: as §3, §1
# [6] = molecular target: T6, hNaV1.2 (Homo sapiens, UniProt Q99250); experiment: as above
# T6 construct: expression vector containing the full-length cDNA coding for specific human and mouse sodium channel α-subunit; expressed in transfected cells
# Excerpt: as §3, §1
# T3 sequence (Q9UQD0 whole entry N1768D): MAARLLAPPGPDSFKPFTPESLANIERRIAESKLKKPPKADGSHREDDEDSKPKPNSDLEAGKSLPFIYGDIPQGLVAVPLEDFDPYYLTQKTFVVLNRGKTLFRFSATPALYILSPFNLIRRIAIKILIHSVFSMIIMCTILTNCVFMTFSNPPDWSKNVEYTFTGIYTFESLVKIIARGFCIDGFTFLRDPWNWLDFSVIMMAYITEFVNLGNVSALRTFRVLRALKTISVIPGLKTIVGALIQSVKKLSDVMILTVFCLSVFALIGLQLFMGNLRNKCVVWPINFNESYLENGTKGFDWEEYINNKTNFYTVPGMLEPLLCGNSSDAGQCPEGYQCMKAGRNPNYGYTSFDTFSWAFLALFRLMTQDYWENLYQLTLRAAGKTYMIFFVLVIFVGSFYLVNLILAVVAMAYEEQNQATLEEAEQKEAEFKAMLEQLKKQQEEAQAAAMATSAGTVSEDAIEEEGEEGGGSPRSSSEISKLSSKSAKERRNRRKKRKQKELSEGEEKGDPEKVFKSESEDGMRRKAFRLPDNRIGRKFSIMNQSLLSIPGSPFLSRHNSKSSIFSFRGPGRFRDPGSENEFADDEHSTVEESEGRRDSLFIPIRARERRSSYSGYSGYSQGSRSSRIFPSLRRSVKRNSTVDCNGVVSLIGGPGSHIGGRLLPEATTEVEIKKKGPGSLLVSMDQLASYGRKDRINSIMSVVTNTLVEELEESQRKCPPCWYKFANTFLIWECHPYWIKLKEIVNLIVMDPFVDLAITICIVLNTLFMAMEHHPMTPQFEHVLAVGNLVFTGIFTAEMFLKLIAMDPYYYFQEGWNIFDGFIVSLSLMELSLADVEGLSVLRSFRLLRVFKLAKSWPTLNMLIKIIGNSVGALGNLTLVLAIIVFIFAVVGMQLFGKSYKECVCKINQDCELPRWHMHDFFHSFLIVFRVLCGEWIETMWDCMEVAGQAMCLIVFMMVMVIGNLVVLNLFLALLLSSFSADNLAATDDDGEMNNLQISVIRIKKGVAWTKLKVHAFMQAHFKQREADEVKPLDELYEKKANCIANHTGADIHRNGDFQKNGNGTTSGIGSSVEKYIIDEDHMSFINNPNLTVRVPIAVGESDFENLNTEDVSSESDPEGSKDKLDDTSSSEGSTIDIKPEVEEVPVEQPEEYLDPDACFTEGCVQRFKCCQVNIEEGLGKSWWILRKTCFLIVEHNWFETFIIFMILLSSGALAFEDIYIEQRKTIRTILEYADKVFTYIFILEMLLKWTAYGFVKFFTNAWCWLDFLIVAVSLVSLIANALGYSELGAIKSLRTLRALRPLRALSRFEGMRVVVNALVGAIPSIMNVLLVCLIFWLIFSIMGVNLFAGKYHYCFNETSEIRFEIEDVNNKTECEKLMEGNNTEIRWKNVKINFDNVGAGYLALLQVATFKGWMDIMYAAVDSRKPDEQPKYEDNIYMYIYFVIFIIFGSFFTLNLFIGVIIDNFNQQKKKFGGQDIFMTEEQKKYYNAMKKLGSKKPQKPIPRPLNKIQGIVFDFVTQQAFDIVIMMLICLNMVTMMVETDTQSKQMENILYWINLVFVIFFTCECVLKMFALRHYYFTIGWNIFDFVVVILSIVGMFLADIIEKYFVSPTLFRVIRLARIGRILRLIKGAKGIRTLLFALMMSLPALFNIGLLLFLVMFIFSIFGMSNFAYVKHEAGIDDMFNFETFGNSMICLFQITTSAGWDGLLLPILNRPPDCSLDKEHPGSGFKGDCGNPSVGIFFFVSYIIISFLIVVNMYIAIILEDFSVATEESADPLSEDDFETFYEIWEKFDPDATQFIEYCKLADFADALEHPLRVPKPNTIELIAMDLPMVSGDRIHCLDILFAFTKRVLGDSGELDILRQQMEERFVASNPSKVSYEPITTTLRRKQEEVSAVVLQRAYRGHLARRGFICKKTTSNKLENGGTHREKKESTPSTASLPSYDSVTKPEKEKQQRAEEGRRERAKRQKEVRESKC
# T6 sequence (Q99250 whole entry): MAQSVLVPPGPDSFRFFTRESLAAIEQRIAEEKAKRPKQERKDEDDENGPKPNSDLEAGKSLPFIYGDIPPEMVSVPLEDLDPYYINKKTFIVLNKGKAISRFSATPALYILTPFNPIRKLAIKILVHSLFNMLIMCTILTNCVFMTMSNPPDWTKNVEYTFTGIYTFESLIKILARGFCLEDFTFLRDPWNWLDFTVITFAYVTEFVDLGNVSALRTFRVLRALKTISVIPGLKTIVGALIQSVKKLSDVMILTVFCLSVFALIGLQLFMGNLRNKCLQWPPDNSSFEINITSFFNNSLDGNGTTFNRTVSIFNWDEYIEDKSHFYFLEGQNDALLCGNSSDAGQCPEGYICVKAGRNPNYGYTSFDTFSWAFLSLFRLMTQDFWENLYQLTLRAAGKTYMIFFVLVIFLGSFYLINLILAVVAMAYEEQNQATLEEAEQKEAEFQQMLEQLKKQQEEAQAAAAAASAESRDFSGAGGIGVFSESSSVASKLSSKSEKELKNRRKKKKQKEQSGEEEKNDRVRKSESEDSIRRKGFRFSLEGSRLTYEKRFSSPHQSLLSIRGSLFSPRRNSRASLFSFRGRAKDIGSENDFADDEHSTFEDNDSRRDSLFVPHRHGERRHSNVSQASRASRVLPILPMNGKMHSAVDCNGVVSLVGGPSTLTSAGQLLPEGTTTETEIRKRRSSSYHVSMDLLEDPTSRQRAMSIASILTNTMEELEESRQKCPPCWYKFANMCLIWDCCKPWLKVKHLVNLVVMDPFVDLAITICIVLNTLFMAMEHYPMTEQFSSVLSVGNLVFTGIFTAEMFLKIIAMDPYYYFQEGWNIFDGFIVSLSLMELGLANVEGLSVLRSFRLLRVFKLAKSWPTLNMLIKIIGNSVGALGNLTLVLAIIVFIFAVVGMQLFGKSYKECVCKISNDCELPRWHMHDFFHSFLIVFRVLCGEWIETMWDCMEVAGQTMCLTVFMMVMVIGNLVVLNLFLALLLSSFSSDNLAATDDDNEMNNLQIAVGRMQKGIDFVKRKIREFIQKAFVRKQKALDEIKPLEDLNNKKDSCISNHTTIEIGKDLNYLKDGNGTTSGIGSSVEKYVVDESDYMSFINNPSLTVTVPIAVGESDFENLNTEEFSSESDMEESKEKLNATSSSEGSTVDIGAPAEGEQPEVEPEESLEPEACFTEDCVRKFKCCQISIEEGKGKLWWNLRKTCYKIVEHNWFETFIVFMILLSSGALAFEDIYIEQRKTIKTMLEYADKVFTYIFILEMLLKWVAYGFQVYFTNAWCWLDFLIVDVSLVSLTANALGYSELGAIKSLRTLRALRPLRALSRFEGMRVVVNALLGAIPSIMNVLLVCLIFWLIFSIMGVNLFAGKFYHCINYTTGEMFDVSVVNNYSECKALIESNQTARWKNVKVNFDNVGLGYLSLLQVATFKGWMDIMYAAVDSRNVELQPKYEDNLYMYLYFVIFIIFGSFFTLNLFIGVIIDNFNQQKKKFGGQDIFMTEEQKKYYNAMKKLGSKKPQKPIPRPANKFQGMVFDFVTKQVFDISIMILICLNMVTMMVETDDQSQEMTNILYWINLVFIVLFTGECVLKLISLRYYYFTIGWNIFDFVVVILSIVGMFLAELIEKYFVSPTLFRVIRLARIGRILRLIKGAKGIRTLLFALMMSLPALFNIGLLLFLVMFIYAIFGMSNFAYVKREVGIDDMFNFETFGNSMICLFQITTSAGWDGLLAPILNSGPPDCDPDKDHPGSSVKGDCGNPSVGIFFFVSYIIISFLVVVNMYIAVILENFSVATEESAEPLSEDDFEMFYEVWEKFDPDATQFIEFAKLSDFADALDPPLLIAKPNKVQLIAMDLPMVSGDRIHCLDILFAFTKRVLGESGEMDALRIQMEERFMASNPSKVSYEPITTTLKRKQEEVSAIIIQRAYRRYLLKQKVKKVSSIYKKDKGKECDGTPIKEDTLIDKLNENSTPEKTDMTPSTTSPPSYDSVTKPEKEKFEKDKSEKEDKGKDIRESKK
# T2 sequence (Q9UQD0 whole entry I1327V): as the sequence (Q9UQD0 whole entry N1768D) above, with I1327V, D1768N counted along it
# T1 sequence (Q9UQD0 whole entry): as the sequence (Q9UQD0 whole entry N1768D) above, with D1768N counted along it
# T1 sequence (Q92913 1-192 isoform Q92913-2 partner): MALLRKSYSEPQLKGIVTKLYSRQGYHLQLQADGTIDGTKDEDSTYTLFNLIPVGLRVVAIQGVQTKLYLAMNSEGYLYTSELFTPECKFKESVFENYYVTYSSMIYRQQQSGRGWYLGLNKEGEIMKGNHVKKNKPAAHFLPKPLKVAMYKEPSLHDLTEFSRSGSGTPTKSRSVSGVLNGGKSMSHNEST
compound,measurement,setting,value
Cc1cc(S(=O)(=O)Nc2cscn2)c(F)cc1N(C)[C@H]1CCN(Cc2ccccc2)C1 [NBI-921352],IC50,[1],36 µM
same,"hNav1.6 current in (352)/(Vehicle), Rested (-120mV), mean",[1]; -4 Log M,0.8706
same,"hNav1.6 current in (352)/(Vehicle), Rested (-120mV), mean",[1]; -4.47713 Log M,0.4353
same,"hNav1.6 current in (352)/(Vehicle), Rested (-120mV), mean",[1]; -4.95425 Log M,0.1765
same,"hNav1.6 current in (352)/(Vehicle), Rested (-120mV), mean",[1]; -5.43133 Log M,0.09412
same,"hNav1.6 current in (352)/(Vehicle), Rested (-120mV), mean",[1]; -5.90833 Log M,-0.01176
same,"hNav1.6 current in (352)/(Vehicle), Rested (-120mV), mean",[1]; -6.3851 Log M,-0.02353
same,"hNav1.6 current in (352)/(Vehicle), Rested (-120mV), mean",[1]; -6.86328 Log M,0.1176
same,"hNav1.6 current in (352)/(Vehicle), Rested (-120mV), mean",[1]; -7.33724 Log M,0.05882
same,IC50,[2],0.035 µM
same,"h1.6-I1327V 145756, Mean",[2]; -5 LogM,0.91
same,"h1.6-I1327V 145756, Mean",[2]; -5.47716 LogM,0.88
same,"h1.6-I1327V 145756, Mean",[2]; -5.95429 LogM,0.9
same,"h1.6-I1327V 145756, Mean",[2]; -6.4318 LogM,0.82
same,"h1.6-I1327V 145756, Mean",[2]; -6.91009 LogM,0.67
same,"h1.6-I1327V 145756, Mean",[2]; -7.38722 LogM,0.56
same,"h1.6-I1327V 145756, Mean",[2]; -7.85387 LogM,0.29
same,"h1.6-I1327V 145756, Mean",[2]; -8.33 LogM,0.13
same,"h1.6-N1768D 145756 norm, Mean",[3]; -5 LogM,0.9
same,"h1.6-N1768D 145756 norm, Mean",[3]; -5.47716 LogM,0.88
same,"h1.6-N1768D 145756 norm, Mean",[3]; -5.95429 LogM,0.82
same,"h1.6-N1768D 145756 norm, Mean",[3]; -6.4318 LogM,0.74
same,"h1.6-N1768D 145756 norm, Mean",[3]; -6.91009 LogM,0.62
same,"h1.6-N1768D 145756 norm, Mean",[3]; -7.38722 LogM,0.46
same,"h1.6-N1768D 145756 norm, Mean",[3]; -7.85387 LogM,0.18
same,"h1.6-N1768D 145756 norm, Mean",[3]; -8.33 LogM,0.03
same,mNaV1.1 current (352)/(Vehicle),[4]; -4.22185 Log M,0.61
same,mNaV1.1 current (352)/(Vehicle),[4]; -4.69897 Log M,0.28
same,mNaV1.1 current (352)/(Vehicle),[4]; -5.17607 Log M,0.19
same,mNaV1.1 current (352)/(Vehicle),[4]; -5.65326 Log M,0.12
same,mNaV1.1 current (352)/(Vehicle),[4]; -6.13018 Log M,0.05
same,mNaV1.1 current (352)/(Vehicle),[4]; -6.6073 Log M,-0.03
same,mNaV1.1 current (352)/(Vehicle),[4]; -7.08619 Log M,-0.01
same,mNaV1.1 current (352)/(Vehicle),[4]; -7.56864 Log M,0
same,IC50,[4]; Vh -45 mV,41 µM
same,inhibition at 30 µM,"[5]; 30 µM, NaV1.3, read-out: inhibition at the highest concentration tested",< 50%
same,"hNaV1.3 current (352)/(Vehicle), mean",[5]; -4.52288 Log M,0.17
same,"hNaV1.3 current (352)/(Vehicle), mean",[5]; -5 Log M,0.03
same,"hNaV1.3 current (352)/(Vehicle), mean",[5]; -5.47716 Log M,0.01
same,"hNaV1.3 current (352)/(Vehicle), mean",[5]; -5.95429 Log M,-0.01
same,"hNaV1.3 current (352)/(Vehicle), mean",[5]; -6.91009 Log M,0.01
same,"hNaV1.3 current (352)/(Vehicle), mean",[5]; -7.38722 Log M,0.02
same,"hNaV1.3 current (352)/(Vehicle), mean",[5]; -7.85387 Log M,-0.01
same,IC50,"[5]; Vh -45 mV, HEK-293",> 30 µM
same,"hNav1.2 current (352)/(Vehicle), mean",[6]; -4 Log M,0.88
same,"hNav1.2 current (352)/(Vehicle), mean",[6]; -4.47713 Log M,0.78
same,"hNav1.2 current (352)/(Vehicle), mean",[6]; -4.95425 Log M,0.6
same,"hNav1.2 current (352)/(Vehicle), mean",[6]; -5 Log M,0.66
same,"hNav1.2 current (352)/(Vehicle), mean",[6]; -5.43133 Log M,0.42
same,"hNav1.2 current (352)/(Vehicle), mean",[6]; -5.47716 Log M,0.44

# Reference: article PMC8903829 (eLife, 2022)
